From US20260256868A1, “COMBINATION HERBAL MEDICINES FOR THE TREATMENT OF INFLAMMATORY BOWEL DISORDERS” (EVINATURE LTD., priority 2022, published 2026)

Tested on: cytochrome P450 1A1 (CYP1A1)
Assay: CYP1A1 expression in colonic mucosal tissue of UC patients by RT-PCR (Example 8)
Format: in vivo, human
Details: mucosal healing (Mayo sub-score 0/1) after treatment
From the text: AhR is a ligand-activated transcription factor that ultimately acts in the nucleus in promoting transcription of various genes, including among others cytochrome P450 1A1 (CYP1A1) which is one of the most important xenobiotic-metabolizing enzymes and an important regulator of immune response in the intestine. Therefore, the inventors studied the expression of CYP1A1 in samples of colonic mucosal tissue obtained from UC patients, using RT-PCR.
Samples of colonic tissue were obtained during lower endoscopy from UC patients treated with CurQD and patients treated by other medications or placebo. Tissue specimens were immersed in liquid nitrogen. Biopsy samples were lysed and homogenized in TRI-Reagent and extracted according to the manufacturer's instructions (Life technologies, USA). Reverse transcription was performed on lug total RNA using the High Capacity RNA to cDNA kit according to the manufacturer's instructions (Applied Biosystems Foster City, CA USA) and Hs01054796_g1 assay for CYP1A1 and Hs99999905_m1 assay for GAPDH (housekeeping gene).

- median CYP1A1 expression in patients who achieved mucosal healing: 4.6
SMILES: Nc1ccc(O)c(C(=O)O)c1 [Batch 5ASA, 5-aminosalicylic acid]
